Consider three compounds from US20100028406A1, “TOPICAL DRUG DELIVERY BY IONTOPHORESIS” (UNIVERSITE DE GENEVE, priority 2005, published 2010).

Converted amounts (≈) assume the structure as drawn. Like-named read-outs stand apart in the source and are kept apart here.

For series [1] the following is noted: cited from earlier work.
The conditions of series [2]: human skin, 5% w/w (220 mM) ACV ointment, passive; cited from earlier work.
For series [3] the following is noted: pH 7.4, 25°; cited from earlier work.
The nature of series [4]: Cutaneous conversion of VCV to ACV in contact with skin (SC and dermis). Type of series: in vitro ADME, porcine. Here is the method: (§1) The aqueous stability of VCV in the donor formulations was investigated by periodic sampling of solutions (2 and 10 mM in water with 15 mM acetaminophen) over a period of 44 hours. In addition, the impact of an electrical current (0.34 mA) on this stability was examined over the same period. The chemical hydrolysis of VCV was also investigated in the presence of PBS pH 7.4. The cutaneous conversion of VCV to ACV via hydrolytic cleavage of the ester bond was verified as follows. Cells were assembled as for an iontophoresis experiment. A 100 μM solution of VCV in PBS pH 7.4 was placed in all the cell compartments and left in contact with the skin (SC and dermis) for 4 hours. The compartments were assayed for ACV and VCV immediately afterwards.

For series [5] the following is noted: topical 220 mM ACV formulation, rabbits in vivo; cited from earlier work.
A short description of series [6]: pKa and ionization state of ACV and VCV. Type of series: physicochemical. The note with it: for ionization state in the donor phase: unbuffered formulations, ACV pH 6.3, VCV pH 5.7.
The conditions of series [7]: calculated (Denny, 2003); cited from earlier work.
For series [8] the following is noted: guinea pig skin, 5% w/w (220 mM) ACV ointment, passive; cited from earlier work.
The conditions of series [9]: cited from earlier work. The source holds these as a separate data set.
Series [10] in a line: Iontophoresis across porcine skin in vitro, 3-compartment cells, acetaminophen as electroosmosis marker. Here is the method:
Porcine ear skin, which is a well-accepted model for human skin (Dick and Scott, 1992; Sekkat et al., 2002), was used in these studies. Porcine ears were obtained from a local abattoir (Société d'Exploitation d'Abbatage, Annecy, France) a few hours after the sacrifice of the animals. The excised skin was then dermatomed (˜750 μm) on the same day and stored at −20° C. for a maximum of two months.
Iontophoresis was performed using vertical 3-compartment cells (FIG. 2). The skin was placed between two half-cells: the upper half, in contact with the SC, comprised two electrode/donor compartments, while the lower receiver compartment was in contact with the dermis. A flow-through system circulated phosphate-buffered normal saline (PBS: 16.8 mM Na2HPO4, 1.4 mM KH2PO4 and 136.9 mM NaCl; pH 7.4) through the receiver chamber (volume 4.7 mL) at a rate of 3 mL/h. Ag/AgCl electrodes were used throughout the study. The skin was allowed to equilibrate for one hour prior to the iontophoresis experiment. In order to reduce competition from Na^+ ions present in the donor, and thus to increase the permeation of VCV, most experiments were performed using a salt bridge assembly. This strategy consists of physically separating the anodal chamber (Ag electrode immersed in PBS pH 7.4) from the donor compartment (drug solution in contact with the SC) and employing a salt bridge (prepared by filling a 12 cm tubing with a warm aqueous solution of 3% agarose and 0.1 M NaCl and then allowed to cool) to electrically connect the two chambers. […] For control experiments without the salt bridge, the anodal compartment contained 1 mL of 10 mM VCV.HCl in PBS pH 7.4. The cathodal compartment contained PBS pH 7.4 in all the experiments. A constant current of 0.34 mA was applied for 7 hours (equivalent to a current density of 0.5 mA/cm^2).
Acetaminophen (ACE, 15 mM) was included in the donor solution as a marker for electroosmotic flow. Being a small, polar and neutral molecule, it is transported mainly by convective solvent flow during iontophoresis. Therefore, its flux can be used to determine the contribution of electroosmosis to the total iontophoretic flux,
where JEO represents the contribution of electroosmosis (EO) to delivery, vA→C is the convective solvent flow from the anode to cathode, and CD is the donor concentration of the drug.
The experiments were performed in sextuplicate, except for passive delivery (n=3), using the skin of as many different animals as possible. Samples were collected hourly and analyzed by high pressure liquid chromatography (HPLC). The HPLC system consisted of a 600 E Controller pump, an Autosampler Injector 717-plus, an In Line Degasser, and a UV 2487 dual λ Detector (Waters, Saint-Quentin Yvelines, France). The separation was performed on a Nucleosil® 100-5 C18 Nautilus column (L: 125 mm; ID: 4.6 mm; Macherey-Nagel, Hoerdt, France) with a 99:1 mixture of 0.1% trifluoroacetic acid (TFA) in water (pH 2.5): MeCN. The flow rate was 1 mL/min, the temperature was adjusted to 30° C., and 50 μL of sample were injected.
The iontophoretic flux (JTOT) of a charged species is considered to be the sum of two separate transport processes—electromigration (JEM) and electroosmosis (JEO), assuming negligible passive skin permeability (Sage Jr., 1995):
JTOT,VCV=JEM,VCV+JEO,VCV (equation 2)
Briefly, electromigration occurs as a result of increased molecular transport in the presence of an applied electric field, whereas electroosmosis refers to transport mediated by the bulk solvent flow across the skin (in the anode-to-cathode direction) due to the skin's permselectivity for cations under physiological conditions.

Series [11] is described as follows: Aqueous stability of VCV in donor formulations and in PBS pH 7.4. Type of series: physicochemical. Here is the method: as §1
The conditions of series [12]: iontophoresis, rabbit skin; cited from earlier work.

What is called aqueous solubility is the concentration that dissolves in the medium under given conditions. Consider `Nc1nc2c(ncn2COCCO)c(=O)[nH]1` [ACV, acyclovir], for which the donor concentration-normalized flux in [1] (human skin, physiological pH, iontophoresis) is 0.0027 cm/h; in series [10] (pig, 7 h, 2 mM, pH 6.3) it was 0.0024 cm/h. In series [1] (iontophoretic administration across human skin), the epidermal concentrations was about 80 µg/mL. Further, the results for the in vitro flux in series [2] and in [8] were 0.24 nmol/cm^2/h and 0.21 nmol/cm^2/h, respectively. Moreover, in series [3], the aqueous solubility is on record as 1.3 mg/mL (≈ 5.77 mM). Further, the “stability in contact with the skin, donor and receptor chambers” value in series [4] (100 μM, 4 hours, SC and dermis) is “stable”. Besides, in [5], the “dermal concentrations (microdialysis)” value is “below the limit of detection”. The “ionization state in the donor phase” value in series [6] is given as “effectively uncharged”. Besides, the “calculated log P and log D values” in series [7] is listed as −1.76. In addition, the ionized fraction in series [9] (pH 3.0) was 20%; in series [9] (pH 7.4), 2%. The “mechanism of iontophoretic transport across the skin” value in [10] (unbuffered formulations, ACV pH 6.3, VCV pH 5.7) is “entirely by EO”.

In the case of `CC(C)[C@H](N)C(=O)OCCOCn1cnc2c(=O)[nH]c(N)nc21` [VCV, valaciclovir], the “prodrug converted to ACV” value in [11] (PBS pH 7.4, over 7 hrs) is recorded as about 12%. Moreover, the “VCV converted into ACV” value in series [11] (unbuffered aqueous solutions (2 and 10 mM) with acetaminophen, 44 hours, absence of a current) is reported as “Less than 1%”. In addition, the “extent of degradation of VCV” value in [11] (unbuffered aqueous solutions, presence of a current (0.34 mA), over 7 hours) was about 1%. Moreover, in [4] (100 μM in PBS pH 7.4, 4 hours), the “enzymatic conversion after contact with the SC” value is “not observed”. Also, in [4] (100 μM in PBS pH 7.4, 4 hours, receiver (dermal) compartment), the “hydrolysis after contact with the dermis” value is recorded as “completely hydrolyzed to ACV”. This compound also returned a protonated fraction in [6] (physiological pH) of about 50%. The “ionization state in the donor phase” value in series [6] is on record as “fully protonated”. Besides, the “calculated log P and log D values” in [7] is reported as −0.78. Also, the “mechanism of iontophoretic transport across the skin” value in [10] was “almost entirely to electromigration (EM)”. Also, the “average flux Jt=0-3 h” value in [10] (pig, 2 mM) is listed as 385±158 nmol/cm^2/h; in series [10] (pig, 10 mM), 479±258 nmol/cm^2/h. The “flux Jt=0-7 h” value in series [10] (pig, 10 mM) is 510±219 nmol/cm^2/h. Also, in [10] (pig, 4 h, 2 mM), the “amount reaching the receptor as fraction of the applied dose” value is given as 50%. Moreover, the “EM contribution to the total flux” value in series [10] (pig, 7 h, 10 mM, pH 7.4) amounted to 73%. The transport number in [10] (pig, 7 h, pH 7.4) is given as about 0.03.

As for `CC12CCC3C(CC=C4CC(OC(=O)CN)CCC43C)C1CCC2=O` (centres unmarked) [glycyl ester of DHEA], the “increase in permeation compared to the parent DHEA” value in [12] is reported as 3 fold.
